Measurements: patent US9346809B2 (LEO PHARMA A/S, priority 2009, dated 2016)
Read-outs that look alike come from different tables or passages of the source.

How the values were obtained:
Format in all cases: biochemical
[1] = target: T1, JAK1 (aa 850-1154, catalytic domain, GST-tag) (Homo sapiens, UniProt P23458); assay: JAK kinase assay (HTRF, phosphorylation of TK substrate-biotin), JAK1; conditions: ATP at Km (7 μM)
T1 construct: JAK1 (aa 850-1154) and TYK2 (aa 871-1187) are expressed with an N-terminally fused GST-tag; GST (N); purchased Carna Biosciences, Inc; host or cells: baculovirus expression system
Experimental: (§1) Human baculovirus-expressed JAK1, 2, 3 and TYK2 were purchased from Carna Biosciences, Inc. All four purified enzymes contain only the catalytic domain. JAK1 (aa 850-1154) and TYK2 (aa 871-1187) are expressed with an N-terminally fused GST-tag, and JAK2 and JAK3 with an N-terminally fused His-tag.
(§2) Inhibition of phosphorylation of a synthetic peptide was measured in an HTRF-based assay using the TK substrate-Biotin from the Cisbio HTRFKinEASE TK kit. First, 2 μl of TK solution (TK substrate-biotin in kinase buffer [1× enzymatic buffer from HTRFKinEASE TK kit, 1 mM DTT]) is added to a plate containing 1 μl prediluted compound (final assay concentration DMSO: 0.75%). Then, 5 μl kinase-ATP mix (prepared in kinase buffer) is added to the wells and the plates are incubated at RT for 20-30 min. For all four kinases a concentration of ATP that corresponded to the Km for ATP was used. The final concentrations of buffers, substrate, kinase and ATP were: JAK1: 50 mM Hepes buffer pH 7.0, 0.01% BSA, 10 mM MgCl2, 1 mM DTT, 7 μM ATP, 50 nM SEB, 1 μM TK Substrate-Biotin and 5 ng JAK1; JAK2: 50 mM Hepes buffer pH 7.0, 0.01% BSA, 5 mM MgCl2, 1 mM DTT, 4 μM ATP, 1 μM TK Substrate-Biotin and 0.1 ng JAK2; JAK3: 50 mM Hepes buffer pH 7.0, 0.01% BSA, 5 mM MgCl2, 1 mM DTT, 2 μM ATP, 1 μM TK Substrate-Biotin and 0.3 ng JAK3; TYK2: 50 mM Hepes buffer pH 7.0, 0.01% BSA, 5 mM MgCl2, 1 mM DTT, 13 μM ATP, 50 nM SEB, 1 μM TK Substrate-Biotin and 0.8 ng TYK2. Thereafter, the kinase reaction is stopped by adding 4 μl detection mix (final concentrations: 50 mM Hepes buffer pH 7.0, 0.01% BSA, 0.8 M KF, 20 mM EDTA, 42 nM Streptavidin-XL665 and 1:400 STK Ab Cryptate) and the plates are incubated overnight in the dark. The HTRF signal is read using an Envision plate reader.
(§3) In Table 1 selected JAK kinase inhibitory activities are listed with the following indicators: I: EC50<100 nM, II: 100 nM≦EC50≦500 nM and III: EC50>500 nM

[2] = target: T2, TYK2 (aa 871-1187, catalytic domain, GST-tag) (Homo sapiens, UniProt P29597); assay: JAK kinase assay (HTRF, phosphorylation of TK substrate-biotin), TYK2; conditions: ATP at Km (13 μM)
T2 construct: JAK1 (aa 850-1154) and TYK2 (aa 871-1187) are expressed with an N-terminally fused GST-tag; GST (N); purchased Carna Biosciences, Inc; host or cells: baculovirus expression system
T2 sequence (P29597 871-1187): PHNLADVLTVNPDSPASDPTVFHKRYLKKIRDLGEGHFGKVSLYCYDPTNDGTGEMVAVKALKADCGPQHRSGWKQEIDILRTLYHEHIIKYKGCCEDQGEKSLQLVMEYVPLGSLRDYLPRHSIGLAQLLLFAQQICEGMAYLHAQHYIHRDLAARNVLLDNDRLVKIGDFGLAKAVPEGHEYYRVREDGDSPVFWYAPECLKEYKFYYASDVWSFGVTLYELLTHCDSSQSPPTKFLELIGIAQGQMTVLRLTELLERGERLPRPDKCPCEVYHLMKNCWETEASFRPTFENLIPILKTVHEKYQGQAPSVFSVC
Experimental: as §1, §2, §3

[3] = target: T3, JAK2 (catalytic domain, His-tag) (Homo sapiens, UniProt O60674); assay: JAK kinase assay (HTRF, phosphorylation of TK substrate-biotin), JAK2; conditions: ATP at Km (4 μM)
T3 construct: All four purified enzymes contain only the catalytic domain; His (N); purchased Carna Biosciences, Inc; host or cells: baculovirus expression system
Experimental: as §1, §2, §3

[4] = target: T4, JAK3 (catalytic domain, His-tag) (Homo sapiens, UniProt P52333); assay: JAK kinase assay (HTRF, phosphorylation of TK substrate-biotin), JAK3; conditions: ATP at Km (2 μM)
T4 construct: All four purified enzymes contain only the catalytic domain; His (N); purchased Carna Biosciences, Inc; host or cells: baculovirus expression system
Experimental: as §1, §2, §3

[5] = read-out: JAK1 kinase inhibitory activity (EC50 indicator)
[6] = read-out: TYK2 kinase inhibitory activity (EC50 indicator)
[7] = read-out: JAK2 kinase inhibitory activity (EC50 indicator)
[8] = read-out: JAK3 kinase inhibitory activity (EC50 indicator)
[9] = HTRF assay, read-out: JAK1 kinase inhibitory activity (EC50 indicator)
[10] = HTRF assay, read-out: TYK2 kinase inhibitory activity (EC50 indicator)
[11] = HTRF assay, read-out: JAK2 kinase inhibitory activity (EC50 indicator)
[12] = HTRF assay, read-out: JAK3 kinase inhibitory activity (EC50 indicator)

T4 sequence (P52333 822-1111 limits assumed): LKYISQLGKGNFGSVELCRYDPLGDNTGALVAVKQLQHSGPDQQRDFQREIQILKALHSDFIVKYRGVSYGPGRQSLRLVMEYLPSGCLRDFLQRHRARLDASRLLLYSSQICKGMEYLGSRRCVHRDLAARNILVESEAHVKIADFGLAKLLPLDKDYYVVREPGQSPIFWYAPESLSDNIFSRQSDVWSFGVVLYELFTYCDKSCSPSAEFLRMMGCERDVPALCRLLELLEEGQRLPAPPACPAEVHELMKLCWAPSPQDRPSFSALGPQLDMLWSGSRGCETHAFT
T1 sequence (P23458 850-1154): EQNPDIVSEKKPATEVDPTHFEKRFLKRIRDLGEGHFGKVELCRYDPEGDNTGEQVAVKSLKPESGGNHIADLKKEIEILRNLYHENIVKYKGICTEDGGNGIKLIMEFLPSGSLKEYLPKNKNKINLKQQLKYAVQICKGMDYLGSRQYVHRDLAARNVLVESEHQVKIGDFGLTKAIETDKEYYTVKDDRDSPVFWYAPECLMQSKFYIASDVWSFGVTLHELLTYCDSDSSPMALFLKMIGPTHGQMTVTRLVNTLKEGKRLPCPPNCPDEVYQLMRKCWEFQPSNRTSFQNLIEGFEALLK
T3 sequence (O60674 849-1124 limits assumed): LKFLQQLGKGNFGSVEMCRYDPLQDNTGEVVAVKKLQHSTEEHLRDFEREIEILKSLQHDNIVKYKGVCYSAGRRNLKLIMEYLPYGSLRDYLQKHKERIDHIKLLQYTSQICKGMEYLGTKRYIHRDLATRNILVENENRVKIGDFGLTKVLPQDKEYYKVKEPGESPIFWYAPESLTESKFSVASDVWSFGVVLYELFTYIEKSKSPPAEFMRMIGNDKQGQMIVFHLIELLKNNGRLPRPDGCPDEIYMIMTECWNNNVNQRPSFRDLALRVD

Row | EC50 [1, 9] | EC50 [2, 10] | EC50 [3, 11] | EC50 [4, 12] | SMILES | further results
1 | < 0.1 µM | < 0.1 µM | < 0.1 µM | < 0.1 µM | O=C(c1cc(O)cs1)N1CCN(c2ncnc3[nH]ccc23)CC12CC2 [Example 385, (4-Hydroxy-thiophen-2-yl)-[7-(7H-pyrrolo[2,3-d]pyrimidin-4-yl)-4,7-diaza-spiro[2.5]oct-4-yl]-methanone] | –
2 | 0.1 to 0.5 µM | > 0.5 µM | < 0.1 µM | > 0.5 µM | O=C(c1csc2ccccc12)N1CCN(c2ccnc3[nH]ccc23)CC12CC2 [Example 233, Benzo[b]thiophen-3-yl-[7-(1H-pyrrolo[2,3-b]pyridin-4-yl)-4,7-diaza-spiro[2.5]oct-4-yl]-methanone] | –
3 | < 0.1 µM | 0.1 to 0.5 µM | < 0.1 µM | < 0.1 µM | O=C(c1ccc(S(=O)(=O)NCc2ccco2)cc1)N1CCN(c2ncnc3[nH]ccc23)CC12CC2 [Example 426, N-Furan-2-ylmethyl-4-[7-(7H-pyrrolo[2,3-d]pyrimidin-4-yl)-4,7-diaza-spiro[2.5]octane-4-carbonyl]-benzenesulfonamide] | –
4 | < 0.1 µM | < 0.1 µM | < 0.1 µM | < 0.1 µM | NS(=O)(=O)c1ccc(CCC(=O)N2CCN(c3ncnc4[nH]ccc34)CC23CC3)cc1 [Example 383, 4-{3-Oxo-3-[7-(7H-pyrrolo[2,3-d]pyrimidin-4-yl)-4,7-diaza-spiro[2.5]oct-4-yl]-propyl}-benzenesulfonamide] | –
5 | < 0.1 µM | 0.1 to 0.5 µM | < 0.1 µM | 0.1 to 0.5 µM | N#Cc1ccc(C(=O)C(=O)N2CCN(c3ncnc4[nH]ccc34)CC23CC3)cc1 [Example 381, 4-{2-Oxo-2-[7-(7H-pyrrolo[2,3-d]pyrimidin-4-yl)-4,7-diaza-spiro[2.5]oct-4-yl]-acetyl}-benzonitrile] | –

More lines, now with the values behind:

Row | SMILES | EC50 [1, 9] | EC50 [2, 10] | EC50 [3, 11] | EC50 [4, 12] | further results
6 | C#CCOC(=O)N1[C@@H]2CC[C@H]1CN(c1ncnc3[nH]ccc13)C2 [Example 59, 3-(7H-Pyrrolo[2,3-d]pyrimidin-4-yl)-3,8-diazabicyclo[3.2.1]octane-8-carboxylic acid prop-2-ynyl ester] | – | – | – | – | EC50 [1, 5]: 0.1 to 0.5 µM; EC50 [2, 6]: > 0.5 µM; EC50 [3, 7]: 0.1 to 0.5 µM; EC50 [4, 8]: 0.1 to 0.5 µM
7 | O=C(c1cccc2[nH]ccc12)N1[C@@H]2CC[C@H]1CN(c1ncnc3[nH]ccc13)C2 [Example 344, (1H-Indol-4-yl)-[3-(7H-pyrrolo[2,3-d]pyrimidin-4-yl)-3,8-diaza-bicyclo[3.2.1]oct-8-yl]-methanone] | 0.1 to 0.5 µM | 0.1 to 0.5 µM | < 0.1 µM | < 0.1 µM | –
8 | N#Cc1ccc2[nH]c(C(=O)N3C4CCC3CN(c3ncnc5[nH]ccc35)C4)cc2c1 [Example 129, 2-[3-(7H-Pyrrolo[2,3-d]pyrimidin-4-yl)-3,8-diaza-bicyclo[3.2.1]octane-8-carbonyl]-1H-indole-5-carbonitrile] | – | – | – | – | EC50 [1, 5]: < 0.1 µM; EC50 [2, 6]: > 0.5 µM; EC50 [3, 7]: < 0.1 µM; EC50 [4, 8]: < 0.1 µM
9 | COCCNS(=O)(=O)c1ccc(C(=O)N2CCN(c3ncnc4[nH]ccc34)CC23CC3)cc1 [Example 396, N-(2-Methoxy-ethyl)-4-[7-(7H-pyrrolo[2,3-d]pyrimidin-4-yl)-4,7-diaza-spiro[2.5]octane-4-carbonyl]-benzenesulfonamide] | < 0.1 µM | 0.1 to 0.5 µM | < 0.1 µM | < 0.1 µM | –
10 | N#CCCCC(=O)N1CCN(c2ncnc3[nH]cc(Cl)c23)CC12CC2 [Example 322, 5-[7-(5-Chloro-7H-pyrrolo[2,3-d]pyrimidin-4-yl)-4,7-diaza-spiro[2.5]oct-4-yl]-5-oxo-pentanenitrile] | > 0.5 µM | > 0.5 µM | > 0.5 µM | 0.1 to 0.5 µM | –
11 | O=C(c1cccc2cccnc12)N1CCN(c2ncnc3[nH]ccc23)CC12CC2 [Example 164, [7-(7H-Pyrrolo[2,3-d]pyrimidin-4-yl)-4,7-diaza-spiro[2.5]oct-4-yl]-quinolin-8-yl-methanone] | – | – | – | – | EC50 [1, 5]: 0.1 to 0.5 µM; EC50 [2, 6]: > 0.5 µM; EC50 [3, 7]: < 0.1 µM; EC50 [4, 8]: 0.1 to 0.5 µM
12 | Cc1c[nH]c2ncnc(N3CCN(C(=O)Cc4ccc(CC#N)cc4)C4(CC4)C3)c12 [Example 328, (4-{2-[7-(5-Methyl-7H-pyrrolo[2,3-d]pyrimidin-4-yl)-4,7-diaza-spiro[2.5]oct-4-yl]-2-oxo-ethyl}-phenyl)-acetonitrile] | > 0.5 µM | > 0.5 µM | > 0.5 µM | 0.1 to 0.5 µM | –
13 | N#CCCC(=O)N1CCN(c2ncnc3[nH]cc(Cl)c23)CC12CC2 [Example 325, 4-[7-(5-Chloro-7H-pyrrolo[2,3-d]pyrimidin-4-yl)-4,7-diaza-spiro[2.5]oct-4-yl]-4-oxo-butyronitrile] | > 0.5 µM | > 0.5 µM | 0.1 to 0.5 µM | 0.1 to 0.5 µM | –
14 | CC1CN(C(=O)Cc2ccc(C#N)cc2)C2(CC2)CN1c1ncnc2[nH]ccc12 (stereo not shown) [Example 147, 4-{2-[6-Methyl-7-(7H-pyrrolo[2,3-d]pyrimidin-4-yl)-4,7-diaza-spiro[2.5]oct-4-yl]-2-oxo-ethyl}-benzonitrile] | – | – | – | – | EC50 [1, 5]: < 0.1 µM; EC50 [2, 6]: < 0.1 µM; EC50 [3, 7]: < 0.1 µM; EC50 [4, 8]: < 0.1 µM
15 | COc1cnc2[nH]ccc2c1N1CCN(C(=O)Cc2cccc(C#N)c2)C2(CC2)C1 [Example 294, 3-{2-[7-(5-Methoxy-1H-pyrrolo[2,3-b]pyridin-4-yl)-4,7-diaza-spiro[2.5]oct-4-yl]-2-oxo-ethyl}-benzonitrile] | 0.1 to 0.5 µM | > 0.5 µM | 0.1 to 0.5 µM | 0.1 to 0.5 µM | –
16 | N#CCC(=O)N1CCN(c2ccnc3[nH]ccc23)CC12CC2 [Example 220, 3-Oxo-3-[7-(1H-pyrrolo[2,3-b]pyridin-4-yl)-4,7-diaza-spiro[2.5]oct-4-yl]-propionitrile] | 0.1 to 0.5 µM | > 0.5 µM | 0.1 to 0.5 µM | 0.1 to 0.5 µM | –
17 | COCC(=O)N1CCN(c2ncnc3[nH]ccc23)CC12CC2 [Example 443, 2-Methoxy-1-[7-(7H-pyrrolo[2,3-d]pyrimidin-4-yl)-4,7-diaza-spiro[2.5]oct-4-yl]-ethanone] | – | – | – | – | EC50 ([1]; HTRF assay, read-out: JAK1 kinase inhibitory activity (EC50)): < 0.1 µM; EC50 ([2]; HTRF assay, read-out: TYK2 kinase inhibitory activity (EC50)): > 0.5 µM; EC50 ([3]; HTRF assay, read-out: JAK2 kinase inhibitory activity (EC50)): < 0.1 µM; EC50 ([4]; HTRF assay, read-out: JAK3 kinase inhibitory activity (EC50)): > 0.5 µM
18 | Cc1ccc(C(=O)N2CCN(c3ccnc4[nH]ccc34)CC23CC3)s1 [Example 231, (5-Methyl-thiophen-2-yl)-[7-(1H-pyrrolo[2,3-b]pyridin-4-yl)-4,7-diaza-spiro[2.5]oct-4-yl]-methanone] | < 0.1 µM | 0.1 to 0.5 µM | < 0.1 µM | 0.1 to 0.5 µM | –
19 | N#Cc1ccc(C(=O)N2CCN(c3ncnc4[nH]ccc34)CC23CC3)s1 [Example 193, 5-[7-(7H-Pyrrolo[2,3-d]pyrimidin-4-yl)-4,7-diaza-spiro[2.5]octane-4-carbonyl]-thiophene-2-carbonitrile] | – | – | – | – | EC50 [1, 5]: < 0.1 µM; EC50 [2, 6]: < 0.1 µM; EC50 [3, 7]: < 0.1 µM; EC50 [4, 8]: < 0.1 µM
